In US10183936B2, “Hepatitis B core protein allosteric modulators” (priority 2014, dated 2019):

Experiments:
AD38 cells = assay: Viability of AD38 cells (Promega CellTiter-Glo) at the end of compound treatment; format: cell-based; details: 10 μM compound, 6 days, luminescence normalized against DMSO control wells (controls being 100%)
In short: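 AD38 cells seeded at 50,000/well received compound from a 10× solution in 10% DMSO and were incubated 6 days at 37° C. Viability was then read by CellTiter-Glo luminescence in tetracycline-free medium with 2% FBS and 1% DMSO, normalized to DMSO control wells (100%) and reported as percent viability.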

[1] = tested on: HBV viral production in AD38 cells; assay: Viral load production in AD38 cells by quantitative PCR of the HBV core sequence in supernatant; format: cell-based; details: 10 μM compound, 6 days at 37° C., viral load in supernatant compared against DMSO control wells; for activity at 10 µM: Hepatitis B virus, 144 h, read-out: AD38 Viral Load (CpAM/DMSO %) at 10 μM
In short: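 AD38 cells seeded at 50,000/well, treated 6 days at 37° C with compound added as 10× solution in 10% DMSO. HBV core sequence in clarified supernatant quantified by TaqMan qPCR against known standards; viral load compared with DMSO control wells.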

| Compound | AD38 Viability Normalized Result (CPAM/DMSO %) at 10 μM (AD38 cells) [%] | activity at 10 µM [1] [%] | AD38 Viral Load (CpAM/DMSO %) at 10 μM [1] [%] |
| --- | --- | --- | --- |
| O=C(NCCc1ccc(Br)cc1)c1ccc2c(c1)NC(=O)c1ccccc1S2 [Compound 1122] | 86 | 21 | – |
| CC(C)(C)c1ccc([C@@H](CO)NC(=O)c2ccc3c(c2)NC(=O)c2cc(F)ccc2S3)cc1 [Compound 1313] | 108 | 17 | – |
| O=C1Nc2cc(S(=O)(=O)N3CCC(O)C3)ccc2Sc2ccccc21 (stereo not drawn) [Compound 1433] | 94 | 82 | – |
| O=C(NCc1cncs1)c1ccc2c(c1)NC(=O)c1ccccc1[SH]2O (stereo not drawn) [Compound 1536] | 120 | – | 2 |
| CN(C)S(=O)(=O)c1ccc(CCNC(=O)c2ccc3c(c2)NC(=O)c2cc(F)ccc2S3)cc1 [Compound 1384] | 79 | 4 | – |
| O=C(NCc1cccnc1)c1ccc2c(c1)NC(=O)c1c(F)cccc1S2 [Compound 1490] | 79 | 7 | – |
| CS(=O)(=O)c1ccc(CCNC(=O)c2ccc3c(c2)NC(=O)c2ccccc2S3)cc1 [Compound 1103] | 87 | 2 | – |
| O=C(Nc1ccc(F)cn1)c1ccc2c(c1)NC(=O)c1cc(F)ccc1S2 [Compound 1336] | 90 | 70 | – |
| O=C(NCc1ccc(F)cc1)c1ccc2c(c1)NC(=O)c1ccccc1S2 [Compound 1197] | 88 | 1 | – |
| O=C(NCc1cncnc1)c1ccc2c(c1)NC(=O)c1ccccc1N2Cc1ccccc1 [Compound 1482] | 98 | 46 | – |
| O=C(O)c1ccc2c(c1)Sc1ccc(C(=O)NCCC3CCCCC3)cc1NC2=O [Compound 1282, 8-((2-cyclohexylethyl)carbamoyl)-11-oxo-10, 11-dihydrodibenzo [b, f] [1,4] thiazepine-3-carboxylic acid] | 105 | 102 | – |
| O=C(NCCCCC1CCCCC1)c1ccc2c(c1)NC(=O)c1ccccc1S2 [Compound 1150] | 22 | 1 | – |
| CCOC(=O)C(NC(=O)c1ccc2c(c1)NC(=O)c1cc(F)ccc1S2)c1ccccn1 (stereo not drawn) [Compound 1424] | 96 | 65 | – |
| O=C(NCCc1ccccn1)c1ccc2c(c1)NC(=O)c1cccc(F)c1S2 [Compound 1383] | 87 | 1 | – |
| COc1ncc(CNC(=O)c2ccc3c(c2)NC(=O)c2ccccc2S3)s1 [Compound 1612] | 112 | 0 | – |
| O=C(NCCC1CCNCC1)c1ccc2c(c1)NC(=O)c1ccccc1S2 [Compound 1244, 11-oxo-N-(2-(piperidin-4-yl)ethyl)-10, 11-dihydrodibenzo [b,f] [1,4] thiazepine-8-carboxamide] | 103 | 14 | – |
| O=C1Nc2cc(CNCCc3ccccc3)ccc2Sc2ccccc21 [Compound 1357, 8-((phenethylamino)methyl) dibenzo [b,f] [1,4] thiazepin-11(10H)-one] | 115 | 39 | – |
| Cc1nnc(CCNC(=O)c2ccc3c(c2)NC(=O)c2ccccc2S3)o1 [Compound 1603] | 91 | 6 | – |
| CCc1cccc(CCNC(=O)c2ccc3c(c2)NC(=O)c2ccccc2S3)c1 [Compound 1260] | 100 | 8 | – |
| O=C(Nc1nccs1)c1ccc2c(c1)NC(=O)c1cc(F)ccc1S2 [Compound 1329] | 109 | 62 | – |
| O=C(NCc1cccnc1)c1ccc2c(c1)NC(=O)c1ccccc1S2 [Compound 1211] | 106 | 1 | – |
| O=C(NCc1cnc(-c2ccccc2)nc1)c1ccc2c(c1)NC(=O)c1cc(F)ccc1S2 [Compound 1315] | 103 | 4 | – |
| CCCCCCNC(=O)c1ccc2c(c1)NC(=O)c1ccccc1S2 [Compound 1151] | 50 | 1 | – |

| Compound | AD38 Viability Normalized Result (CPAM/DMSO %) at 10 μM (AD38 cells) [%] | activity at 10 µM [1] [%] | AD38 Viral Load (CpAM/DMSO %) at 10 μM [1] [%] |
| --- | --- | --- | --- |
| CN1c2ccc(C(=O)NCCc3cncs3)cc2NC(=O)c2ccccc21 [Compound 1532] | 112 | 17 | – |
| Cc1c(C(=O)NCc2cncs2)ccc2c1NC(=O)c1ccccc1S2 [Compound 1513] | 82 | 2 | – |
| O=C(Nc1nc2ccccc2o1)c1ccc2c(c1)NC(=O)c1cc(F)ccc1S2 [Compound 1354] | 70 | 98 | – |
| CN1c2ccc(C(=O)NCc3cncnc3)cc2NC(=O)c2ccccc21 [Compound 1520] | 81 | 1 | – |
| O=C(NCCc1cncs1)c1ccc2c(c1)NC(=O)c1ccccc1S2(=O)=O [Compound 1617] | 118 | 1 | – |
| CN(C)c1ccccc1CNC(=O)c1ccc2c(c1)NC(=O)c1ccccc1S2 [Compound 1227] | 92 | 10 | – |
| O=C(Nc1nc2ccc(Cl)cc2s1)c1ccc2c(c1)NC(=O)c1cc(F)ccc1S2 [Compound 1340] | 116 | 64 | – |
| CN1C(=O)c2ccccc2Sc2ccc(C(=O)NCc3cncnc3)cc21 [Compound 1574] | 109 | 78 | – |
| Cc1cccc(CNC(=O)c2ccc3c(c2)NC(=O)c2ccccc2S3(=O)=O)c1 [Compound 1621] | 117 | 1 | – |
| O=C(NCc1cccnc1)c1cc2c(cc1F)Sc1ccccc1C(=O)N2 [Compound 1396] | 95 | 63 | – |
| O=C(NCC1CC1)c1ccc2c(c1)NC(=O)c1ccccc1S2 [Compound 1173] | 105 | 39 | – |
| O=C(NCCc1cccnc1)c1ccc2c(c1)NC(=O)c1c(F)cccc1S2 [Compound 1555] | 81 | 36 | – |
| O=C(NCCC1CCCCC1)c1ccc2c(c1)NC(=O)c1ccc(Cl)cc1S2 [Compound 1250] | 113 | 14 | – |
| O=C(Nc1ccncn1)c1ccc2c(c1)NC(=O)c1cc(F)ccc1S2 [Compound 1344] | 102 | 96 | – |
| Cc1cc2c(cc1C(=O)NCCC1CCCCC1)NC(=O)c1ccccc1S2 [Compound 1275] | 93 | 3 | – |
| O=C(NCc1cncs1)c1cc2c(cc1F)Sc1ccccc1C(=O)N2 [Compound 1429] | 90 | 38 | – |
| CCCCNC(=O)c1ccc2c(c1)NC(=O)c1ccccc1S2 [Compound 1123] | 95 | 62 | – |
| O=C(NCCc1ccc(-c2ccccc2)cc1)c1ccc2c(c1)NC(=O)c1ccccc1S2 [Compound 1111] | 89 | 2 | – |
| CCN1c2ccc(C(=O)NCc3cncnc3)cc2NC(=O)c2ccccc21 [Compound 1533] | 105 | 2 | – |
| Cc1c(C(=O)NCCc2cccnc2)ccc2c1NC(=O)c1ccccc1S2 [Compound 1467] | 92 | 1 | – |
| O=C(Nc1cccc(-c2ccncn2)c1)c1ccc2c(c1)NC(=O)c1cc(F)ccc1S2 [Compound 1451] | 92 | 30 | – |
| CC(=O)Nc1ccccc1NC(=O)c1ccc2c(c1)NC(=O)c1ccccc1S2 [Compound 1242] | 78 | 91 | – |
